Data published in paper PMC4965013, “Open Source Drug Discovery with the Malaria Box Compound Collection for Neglected Diseases and Beyond” (PLoS Pathogens, 2016).

How the values were obtained:
[1] = test system: Naegleria fowleri trophozoites; assay: Naegleria fowleri CellTiter-Glo; assay type: cell-based
From the text: Columns CY-CZ: Kyle group (data presented first in this paper). Naegleria fowleri trophozoite growth inhibition. Methods: The CellTiter-Glo (CTG) 2.0 luminescent assay is a quantitative assay that assesses the presence of cellular ATP in lysed cells, displaying an output in Relative Light Units (RLU’s). This was previously standardised, for the growth and development of Naegleria fowleri trophozoites in-vitro to assess drug susceptibility on this parasite. […] These included two drug-like molecules MMV665807 (St. Jude’s Children’s Hospital) and MMV665979 (The Genomics Institute of the Novartis Research Foundation - GNF) and two Probe-like molecules, MMV006203 (GNF) & MMV006172 (GNF; GlaxoSmithKline - GSK). […] However, these Malaria Box compounds were all toxic to zebrafish and mammalian cells.

[2] = test system: P. falciparum; assay: EC50 listed in S2 Table Metabolomics (used to set the concentration tested); assay type: cell-based; conditions: Plasmodium falciparum; EC50 used for Factor_XEC50 in metabolomics; read-out: EC50_nM
[3] = test system: P. falciparum 3D7 trophozoites; assay: Metabolomic fingerprint profiling LC-MS; assay type: cell-based, Plasmodium falciparum; design: UDP-D-glucose / ADP-D-glucose: unit not given here
[4] = test system: P. falciparum Dd2; assay: Malaria Sybr Green I Fluorescence assay Dd2 Horrocks; assay type: cell-based; conditions: Plasmodium falciparum, DD2, 48 h; read-out: P. falciparum Dd2 asexual blood stage EC50 Horrocks
Protocol: Column S: Horrocks group (data presented first in this paper). Asexual Dd2 inhibition of growth (IC50s): IC50 for the Dd2 clone of Plasmodium falciparum were determined using the Malaria Sybr Green I Fluorescence assay. Drug assays were initiated using a 2% trophozoite stage parasitaemia and 2% hematocrit and fluorescence measured after 48 h as fully described in Hasenkamp et al.[53]. Log dose-response curves were plotted in GraphPad Prism (v5.0). The controls for Dd2 using our 48hr Sybr Green I assay were (rounded to nearest nM): Chloroquine 209nM, Mefloquine 11nM, Quinine 246nM, Dihydroartemisinin 4nM, Artemether 10nM, Atovaquone 3nM.

[5] = metabolite level change after treatment

FC(F)(F)c1cccc(CNC2CCN(CCc3ccccc3)CC2)c1 [MMV665979]
Naegleria fowleri hit in words [1]: outstanding hit | EC50 ([1]; Naegleria fowleri): 190 nM

O=C1C(O)=C([C@H]2CC[C@H](c3ccc(Cl)cc3)CC2)C(=O)c2ccccc21 [Atovaquone, reference compound]
EC50 [2]: 1 nM | Acetyllysine ([3]; S2 Table Metabolomics, metabolite Acetyllysine): -0.04735 | N-acetyl-L-ornithine ([3]; S2 Table Metabolomics, metabolite N-acetyl-L-ornithine): -0.04174 | N-carbamoyl-L-aspartate ([3]; S2 Table Metabolomics, metabolite N-carbamoyl-L-aspartate): 3.574 | NADPH ([3]; S2 Table Metabolomics, metabolite NADPH): 0.3866 | dAMP ([3]; S2 Table Metabolomics, metabolite dAMP): -0.09487 | dCMP ([3]; S2 Table Metabolomics, metabolite dCMP): 0.3344 | dTDP ([3]; S2 Table Metabolomics, metabolite dTDP): -0.7104 | dTMP ([3]; S2 Table Metabolomics, metabolite dTMP): -0.4179 | dTTP ([3]; S2 Table Metabolomics, metabolite dTTP): -0.8198 | dihydroorotate ([3]; S2 Table Metabolomics, metabolite dihydroorotate): 4.214 | orotate ([3]; S2 Table Metabolomics, metabolite orotate): -0.07211 | DLH ([3]; S2 Table Metabolomics, peptide DLH): -0.06109 | DLS/SDL/SID ([3]; S2 Table Metabolomics, peptide DLS/SDL/SID): -0.04893 | PD ([3]; S2 Table Metabolomics, peptide PD): 0.1235 | PEE ([3]; S2 Table Metabolomics, peptide PEE): -0.1722 | PVNF ([3]; S2 Table Metabolomics, peptide PVNF): -0.41 | 3-phosphoglycerate ([3]; metabolite 3-phosphoglycerate, S2 Table Metabolomics): 0.03739 | ADP-D-glucose ([3]; metabolite ADP-D-glucose, S2 Table Metabolomics): 0.08423 | ATP ([3]; metabolite ATP, S2 Table Metabolomics): 0.06271 | CDP ([3]; metabolite CDP, S2 Table Metabolomics, change in metabolite level after compound treatment): -0.5138 | D-sedoheptulose-1/7-phosphate ([3]; metabolite D-sedoheptulose-1/7-phosphate, S2 Table Metabolomics, change in metabolite level after compound treatment): 0.1418 | FAD ([3]; metabolite FAD, S2 Table Metabolomics): 0.1027 | GMP ([3]; metabolite GMP, S2 Table Metabolomics, change in metabolite level after compound treatment): 0.1184 | NAD+ ([3]; metabolite NAD+, S2 Table Metabolomics): 0.1854 | NADP+ ([3]; metabolite NADP+, S2 Table Metabolomics): 0.1184 | Octoluse Bisphosphate ([3]; metabolite Octoluse Bisphosphate, S2 Table Metabolomics, change in metabolite level after compound treatment): -0.059 | Pyroglutamic acid ([3]; metabolite Pyroglutamic acid, S2 Table Metabolomics): 0.08924 | UDP-D-glucose ([3]; metabolite UDP-D-glucose, S2 Table Metabolomics): 0.001015 | UDP-D-glucuronate ([3]; metabolite UDP-D-glucuronate, S2 Table Metabolomics): -0.0616 | UDP-N-acetyl-glucosamine ([3]; metabolite UDP-N-acetyl-glucosamine, S2 Table Metabolomics): -0.1593 | UDP ([3]; metabolite UDP, S2 Table Metabolomics, change in metabolite level after compound treatment): -0.7439 | UMP ([3]; metabolite UMP, S2 Table Metabolomics, change in metabolite level after compound treatment): -0.8555 | UTP ([3]; metabolite UTP, S2 Table Metabolomics, change in metabolite level after compound treatment): -1.1527 | a-ketoglutarate ([3]; metabolite a-ketoglutarate, S2 Table Metabolomics): -0.0182 | citrate/isocitrate ([3]; metabolite citrate/isocitrate, S2 Table Metabolomics, change in metabolite level after compound treatment): -0.0966 | cytidine ([3]; metabolite cytidine, S2 Table Metabolomics): 0.2964 | dATP ([3]; metabolite dATP, S2 Table Metabolomics): 0.2506 | dGMP/AMP ([3]; metabolite dGMP/AMP, S2 Table Metabolomics, change in metabolite level after compound treatment): -0.116 | fumarate ([3]; metabolite fumarate, S2 Table Metabolomics, change in metabolite level after compound treatment): 0.379 | glucose-1/6-phosphate ([3]; metabolite glucose-1/6-phosphate, S2 Table Metabolomics, change in metabolite level after compound treatment): 0.3695 | glycerate ([3]; metabolite glycerate, S2 Table Metabolomics, change in metabolite level after compound treatment): 0.1345 | guanine ([3]; metabolite guanine, S2 Table Metabolomics, change in metabolite level after compound treatment): 0.3762 | guanosine ([3]; metabolite guanosine, S2 Table Metabolomics, change in metabolite level after compound treatment): 0.6121 | hypoxanthine ([3]; metabolite hypoxanthine, S2 Table Metabolomics): 0.2162 | indole ([3]; metabolite indole, S2 Table Metabolomics): 0.1728 | inosine ([3]; metabolite inosine, S2 Table Metabolomics, change in metabolite level after compound treatment): 0.1672 | 2_3-Diphosphoglyceric acid [3, 5]: -0.09802 | 4-phosphopantothenate [3, 5]: -0.2334 | 6-phospho-D-gluconate [3, 5]: 0.01237 | FMN [3, 5]: -0.003621 | IMP [3, 5]: 0.3101 | Pyrophosphate [3, 5]: -0.1571 | Sedoheptoluse bisphosphate [3, 5]: 0.01404 | cyclic-AMP [3, 5]: -0.03093 | glutathione disulfide [3, 5]: 0.00323 | lactate [3, 5]: 0.02673 | myo-inositol [3, 5]: 0.3272 | nicotinate ([3]; metabolite nicotinate, S2 Table Metabolomics): 0.1461 | ornithine ([3]; metabolite ornithine, S2 Table Metabolomics): 0.1076 | phosphoenolpyruvate ([3]; metabolite phosphoenolpyruvate, S2 Table Metabolomics): 0.02037 | pyruvate ([3]; metabolite pyruvate, S2 Table Metabolomics, change in metabolite level after compound treatment): -0.07747 | ribose-phosphate ([3]; metabolite ribose-phosphate, S2 Table Metabolomics): 0.1578 | sarcosine/alanine ([3]; metabolite sarcosine/alanine, S2 Table Metabolomics, change in metabolite level after compound treatment): -0.1241 | sn-glycerol-3-phosphate ([3]; metabolite sn-glycerol-3-phosphate, S2 Table Metabolomics): 0.1524 | succinate/methylmalonic acid ([3]; metabolite succinate/methylmalonic acid, S2 Table Metabolomics, change in metabolite level after compound treatment): -0.1814 | uridine ([3]; metabolite uridine, S2 Table Metabolomics, change in metabolite level after compound treatment): -0.1824 | xanthosine ([3]; metabolite xanthosine, S2 Table Metabolomics, change in metabolite level after compound treatment): 0.05904 | EC50 [4]: 3 nM
